Values of other authors as cited in US4279898A, “In vivo inhibitors of cholesterol biosynthesis” (Research Foundation of the City University of New York, priority 1980, dated 1981).

Test system: 5-phosphomevalonate kinase
Settings: publications by the inventors

CC(O)(CCCP(=O)(O)O)CC(=O)O (stereo not shown) [5-carboxy-4-hydroxy-4-methylpentyl-1-phosphonic acid]
inhibition of 5-phosphomevalonate kinase: inhibition
